Laboratory results as given in patent US12089595B2, “Pseudomonas strains and their metabolites to control plant diseases” (T3 Bioscience, Inc., priority 2020, dated 2024).
Entries after “also recorded” stand apart in the source; their conditions may differ. Read-outs that look alike come from different tables or passages of the source.

How the values were obtained:
Erwinia amylovora 273 = test: In vitro plate assay of flash fractions; assay type: cell-based; conditions: E. amylovora 273 on 50% LB plate, 2 μL DMSO solution, one day
Experimental: The generated fractions were applied for the subsequent plate assays. One mL of each fraction was picked up into a 1.5 mL test tube and vacuum dried by an Eppendorf vacuum concentrator. The dried sample was dissolved in 50 μL DMSO, of which 2 μL was used in the plate assay. Briefly, Erwinia amylovora 273 was streaked onto LB plate to grow at 28° C. incubator and single colony obtained after 24 h was inoculated into 5 mL LB media to allow an overnight growth at 28° C. shaker at 200 rpm. The bacteria were diluted 1:100 in sterile water, of which 225 μL was plated onto 50% LB plate (Tryptone, 5.0 g/L; Yeast extract, 2.5 g/L; NaCl, 5.0 g/L, Agar, 15 g/L). After dried in the biosafety cabinet for 10 mins, the DMSO solution of each fraction was then distributed to its pre-labeled section of the petri dish and allowed to dry for another 10 min. Along with the assay, DMSO and Kasugamycin were used as negative and positive controls, respectively. The plates were then incubated at 28° C. incubator and the inhibitory zone was checked one day later.
The generated fractions were applied for the subsequent plate assays. One mL of each fractions was picked up into a 1.5 mL test tube and vacuum dried by an Eppendorf vacuum concentrator. The dried sample was dissolved in 50 μL DMSO, of which 2 μL was used in the plate assay. […]

E. amylovora = test: Plate diffusion assay in LB plates; assay type: cell-based, Erwinia amylovora
Source text: Two assays were used for the antimicrobial test of 0617-T307 cell broth and metabolites. One is plate diffusion assay and the other one is microplate assay. LB plate was used for the plate diffusion assay of the antimicrobial activity of RejuAgro A containing fractions and cell broths against E. amylovora (Table 3).

[1] = tested on: X. arboricola pv. Juglandis Xaj417; test: microbe, parasite or virus in culture; assay type: cell-based, Xanthomonas arboricola pv. Juglandis; conditions: Xanthomonas arboricola, read-out: Diameter of the zone of inhibition
R. solanacearum Pss = test: microbe, parasite or virus in culture; assay type: cell-based; conditions: Ralstonia solanacearum, read-out: Diameter of the zone of inhibition
[2] = tested on: X. arboricola pv. Juglandis Xaj219; test: microbe, parasite or virus in culture; assay type: cell-based, Xanthomonas arboricola pv. Juglandis; conditions: Xanthomonas arboricola, read-out: Diameter of the zone of inhibition
R. solanacearum K60 = test: microbe, parasite or virus in culture; assay type: cell-based; conditions: Ralstonia solanacearum, K60, read-out: Diameter of the zone of inhibition
Solubility in solvents = assay type: physicochemical
Experimental: Preparative HPLC (Prep-HPLC) purification of the fraction 3840 and 5054 lead to the discovery of 15 mg yellow colored compound RejuAgro A (Rt17.5) and 103.3 mg dark-green colored compound RejuAgro B, respectively. […] The structures of the two compounds have been investigated by High resolution mass spectrometry (HR-MS), infrared (IR), Ultraviolet (UV), 1D and 2D Nuclear magnetic resonance (NMR) as well as X-ray crystal structure analysis.

[3] = tested on: Xanthomonas axonopodis pv. citri-Miami XC2002-00010; test: Agar plate spot assay (inhibitory zone); assay type: cell-based; conditions: Xac-Miami XC2002-00010, NA
[4] = tested on: Pectobacterium atrosepticum 942; test: Agar plate spot assay (inhibitory zone); assay type: cell-based; conditions: LB
Source text: (§1) The HPLC isolation and purification of the ethyl acetate extracts of acidified cell broth of Pseudomonas sp. 0617-T307 identified two antimicrobial compounds (Rt22.9 and Rt25.0) from flash fraction T5058 and one antimicrobial compound (Rt18.9) from flash fraction T7882. Two μL of DMSO, Rt18.9, Rt22.9 or Rt25.0 were spotted on agar plates respectively grown with different bacterial strains and the inhibitory zone was further examined (Table 8).

[5] = tested on: Pseudomonas syringae pv syringae 7046; test: Agar plate spot assay (inhibitory zone); assay type: cell-based; conditions: P. syringae pv syringae 7046, LB
Source text: as §1

[6] = tested on: Pectobacterium parmentieri UPP163 936; test: Agar plate spot assay (inhibitory zone); assay type: cell-based; conditions: LB
Source text: as §1

[7] = tested on: Xanthomonas arboricola pv. Juglandis 417; test: Agar plate spot assay (inhibitory zone); assay type: cell-based; conditions: X. arboricola pv. Juglandis 417, NA
Source text: as §1

[8] = tested on: Pseudomonas syringae pv. tomato PT30; test: Agar plate spot assay (inhibitory zone); assay type: cell-based; conditions: P. syringae pv. tomato PT30, LB
Source text: as §1

Erwinia amylovora 1189 = test: Agar plate spot assay (inhibitory zone); assay type: cell-based; conditions: LB
Source text: as §1

[9] = tested on: Xanthomonas arboricola pv. Juglandis 219; test: Agar plate spot assay (inhibitory zone); assay type: cell-based; conditions: X. arboricola pv. Juglandis 219, NA
Source text: as §1

[10] = tested on: Pseudomonas savastanoi pv. savastanoi 01-26; test: Agar plate spot assay (inhibitory zone); assay type: cell-based; conditions: P. savastanoi pv. savastanoi 01-26, LB
Source text: as §1

[11] = tested on: Pseudomonas syringae pv. lachrymans 1188-1; test: Agar plate spot assay (inhibitory zone); assay type: cell-based; conditions: P. syringae pv. lachrymans 1188-1, LB
Source text: as §1

[12] = tested on: Pectobacterium carotovorum subsp. brasiliensis 944; test: Agar plate spot assay (inhibitory zone); assay type: cell-based; conditions: P. carotovorum subsp. brasiliensis 944, LB
Source text: as §1

[13] = tested on: Ralstonia solanacearum K60; assay type: cell-based; conditions: LB
[14] = tested on: Xanthomonas axonopodis pv. citri N40-SO5; test: Agar plate spot assay (inhibitory zone); assay type: cell-based; conditions: Xac N40-SO5, NA
[15] = tested on: Clavibacter michiganensis subsp. michiganensis Cmm 0317; test: Agar plate spot assay (inhibitory zone); assay type: cell-based; conditions: LB, 2 to 5 days
[16] = tested on: C. michiganensis subsp. Michiganensis Cmm382; test: Agar plate diffusion assay; assay type: cell-based, Clavibacter michiganensis subsp. michiganensis; conditions: Clavibacter michiganensis, read-out: Diameter of the zone of inhibition
[17] = tested on: C. michiganensis subsp. Michiganensis Cmm0690; test: Agar plate diffusion assay; assay type: cell-based, Clavibacter michiganensis subsp. michiganensis; conditions: Clavibacter michiganensis, read-out: Diameter of the zone of inhibition
[18] = tested on: C. michiganensis subsp. Michiganensis Cmm0317; test: Agar plate diffusion assay; assay type: cell-based, Clavibacter michiganensis subsp. michiganensis; conditions: Clavibacter michiganensis, read-out: Diameter of the zone of inhibition
Venturia inaequalis = test: Antifungal assay on amended PDA plates; assay type: cell-based; conditions: 200-1000 μg/mL in PDA plate; day 14 (figure)
Experimental: The fungus Venturia inaqualis that causes apple scab was maintained on PDA agar in the dark at room temperature (˜24° C.). A mixture of conidia and mycelia suspension (in 0.01 M PBS) was harvested from PDA (Potato dextrose agar). Ten μL the conidia and mycelia suspension were dropped onto biocontrol bacteria, RejuAgro A, or RejuAgro A amended plates. The control was PDA plates without the addition of the biocontrol bacteria or RejuAgro A or B. […]

For `C[C@H]1O[C@H](O[C@H]2[C@H](O)[C@@H](O)[C@@H](O)[C@H](O)[C@@H]2O)[C@@H](N)C[C@@H]1NC(=N)C(=O)O` [Kasugamycin, reference compound], the “inhibitory zone / zone of clearance” value (Erwinia amylovora 273) was “did show a zone of inhibition” and the “Diameter of the Inhibitory zone” value (E. amylovora; concentration not given) was 1.3 cm.
Work on `CC1=C(C2=C(C)C(=O)C(=O)NC2=O)C(=O)NC(=O)C1=O` [RejuAgro B] yielded a zone of inhibition at 2000 µg/mL [1] of 0 mm, a zone of inhibition at 2000 µg/mL (R. solanacearum Pss) of 4 mm and a zone of inhibition at 2000 µg/mL [2] of 0 mm. For the same compound, the zone of inhibition at 2000 µg/mL (R. solanacearum K60) was 4 mm, the zone of inhibition at 2000 µg/mL (E. amylovora; Erwinia amylovora, 2 mg/mL, read-out: Diameter of the Inhibitory zone) was 0 mm and the “solubility in dimethyl sulfoxide (DMSO)” value (Solubility in solvents; DMSO) was “can be dissolved very well”. The “solubility in methanol and chloroform” value (Solubility in solvents; methanol, chloroform) was “does not dissolve well”.
With `CC(C)CC(=O)NC(Cc1c[nH]c2ccccc12)C(=O)O` (centres unmarked) [Rt22.9] the “Inhibitory zone (Yes/No)” value ([3]; 10 mg/mL) was “No”, the “Inhibitory zone (Yes/No)” value ([4]; 10 mg/mL) was “No” and the “Inhibitory zone (Yes/No)” value ([5]; 10 mg/mL) was “Yes”. For the same compound, the “Inhibitory zone (Yes/No)” value ([6]; 10 mg/mL) was “No”, the “Inhibitory zone (Yes/No)” value ([7]; 10 mg/mL) was “No” and the “Inhibitory zone (Yes/No)” value ([8]; 10 mg/mL) was “Yes”. The “Inhibitory zone (Yes/No)” value (Erwinia amylovora 1189; 10 mg/mL) was “No”, the “Inhibitory zone (Yes/No)” value ([9]; 10 mg/mL) was “No” and the “Inhibitory zone (Yes/No)” value ([10]; 10 mg/mL) was “Yes”. The “Inhibitory zone (Yes/No)” value ([11]; 10 mg/mL) was “Yes”, the “Inhibitory zone (Yes/No)” value ([12]; 10 mg/mL) was “No” and the “Inhibitory zone (Yes/No)” value ([13]; 10 mg/mL) was “Yes”. For the same compound, the “Inhibitory zone (Yes/No)” value ([14]; 10 mg/mL) was “No” and the “Inhibitory zone (Yes/No)” value ([15]; 2 μL of 10 mg/mL spotted) was “Yes”.
With `CCCCCC(=O)NC(Cc1c[nH]c2ccccc12)C(=O)O` (centres unmarked) [Rt25.0] the “Inhibitory zone (Yes/No)” value ([3]; 5 mg/mL) was “Yes”, the “Inhibitory zone (Yes/No)” value ([4]; 5 mg/mL) was “No” and the “Inhibitory zone (Yes/No)” value ([5]; 5 mg/mL) was “Yes”. For the same compound, the “Inhibitory zone (Yes/No)” value ([6]; 5 mg/mL) was “No”, the “Inhibitory zone (Yes/No)” value ([7]; 5 mg/mL) was “No” and the “Inhibitory zone (Yes/No)” value ([8]; 5 mg/mL) was “Yes”. For the same compound, the “Inhibitory zone (Yes/No)” value (Erwinia amylovora 1189; 5 mg/mL) was “No”, the “Inhibitory zone (Yes/No)” value ([9]; 5 mg/mL) was “Yes” and the “Inhibitory zone (Yes/No)” value ([10]; 5 mg/mL) was “Yes”. For the same compound, the “Inhibitory zone (Yes/No)” value ([11]; 5 mg/mL) was “Yes”, the “Inhibitory zone (Yes/No)” value ([12]; 5 mg/mL) was “Yes” and the “Inhibitory zone (Yes/No)” value ([13]; 5 mg/mL) was “Yes”. The “Inhibitory zone (Yes/No)” value ([14]; 5 mg/mL) was “Yes” and the “Inhibitory zone (Yes/No)” value ([15]; 2 μL of 5 mg/mL spotted) was “Yes”.
`CN[C@H](CC(C)C)C(=O)N[C@H]1C(=O)N[C@@H](CC(N)=O)C(=O)N[C@H]2C(=O)N[C@H]3C(=O)N[C@H](C(=O)N[C@H](C(=O)O)c4cc(O)cc(O)c4-c4cc3ccc4O)[C@H](O)c3ccc(c(Cl)c3)Oc3cc2cc(c3O[C@@H]2O[C@H](CO)[C@@H](O)[C@H](O)[C@H]2O[C@H]2C[C@](C)(N)[C@H](O)[C@H](C)O2)Oc2ccc(cc2Cl)[C@H]1O` [Vancomycin] gave a zone of inhibition at 5000 µg/mL [16] of 30 mm, a zone of inhibition at 5000 µg/mL [17] of 30 mm and a zone of inhibition at 5000 µg/mL [18] of 30 mm.
In the case of `O=S(=O)([O-])[O-].[Cu+2]` [copper sulfate, reference compound], the “growth of V. inaequalis on PDA plates” value (Venturia inaequalis) is reported as “no inhibition; also recorded: can grow”.
